Measured values reported in paper PMC7883042 (Peptide Science (Hoboken, N.j.), 2021).
“And” between values parts separate entries of the source, which are not always exact repeats. Identical values can stand only once. Bridge positions count the residues as written; N and C are the ends. Square brackets hold non-standard residues; d marks the D form. Peptide text beside a SMILES is read from it. R8 = C=CCCCCCC[C@@](C)(N)C(=O)O; S5 = C=CCCC[C@](C)(N)C(=O)O

Test system: not listed separately
Test: circular dichroism
Details: PBS; pH 7.4; rt °C; 100 uM

Molecule	helicity [%]
CC(=O)N[C@H](C(=O)N[C@@]1(C)CCCC=CCCC[C@@](C)(C(=O)N[C@@H](CC(N)=O)C(=O)N[C@@H](Cc2c[nH]cn2)C(=O)N[C@@H](CCC(=O)O)C(=O)N[C@@H](C)C(=O)N[C@@H](CCC(=O)O)C(=O)N[C@@H](CC(=O)O)C(=O)N[C@@H](CC(C)C)C(N)=O)NC(=O)[C@H](CCCCN)NC(=O)[C@H](CC(=O)O)NC(=O)[C@H](CC(C)C)NC1=O)[C@@H](C)O	21
CC(=O)N[C@@H](Cc1c[nH]cn1)C(=O)N[C@@H](CCC(=O)O)C(=O)N[C@@]1(C)CCCC=CCCC[C@@](C)(C(=O)N[C@@H](Cc2ccc(O)cc2)C(=O)N[C@@H](CCC(N)=O)C(=O)N[C@@H](CO)C(N)=O)NC(=O)[C@H](CC(C)C)NC(=O)[C@H](CC(=O)O)NC(=O)[C@H](CCC(=O)O)NC1=O (Ac-HE[S5]EDL[S5]YQS-NH2; staple 3-7)	33.4
CC[C@H](C)[C@H](NC(C)=O)C(=O)N[C@@H](CCC(=O)O)C(=O)N[C@@H](CCC(=O)O)C(=O)N[C@@H](CCC(N)=O)C(=O)N[C@]1(C)CCCCCC/C=C/CCC[C@@](C)(C(=O)N[C@@H](CC(N)=O)C(=O)N[C@@H](Cc2c[nH]cn2)C(=O)N[C@@H](CCC(=O)O)C(N)=O)NC(=O)[C@H](CCCCN)NC(=O)[C@H](CC(=O)O)NC(=O)[C@H](CC(C)C)NC(=O)[C@H](Cc2ccccc2)NC(=O)[C@H]([C@@H](C)O)NC(=O)[C@H](CCCCN)NC1=O (Ac-IEEQ[R8]KTFLDK[S5]NHE-NH2; staple (E) 5-12)	12.2
CC(=O)N[C@H](C(=O)N[C@@H](Cc1ccccc1)C(=O)N[C@]1(C)CCCCCC/C=C/CCC[C@@](C)(C(=O)N[C@@H](CCC(=O)O)C(=O)N[C@@H](CC(=O)O)C(=O)N[C@@H](CC(C)C)C(N)=O)NC(=O)[C@H](CCC(=O)O)NC(=O)[C@H](Cc2c[nH]cn2)NC(=O)[C@H](CC(N)=O)NC(=O)[C@H](Cc2ccccc2)NC(=O)[C@H](CCCCN)NC(=O)[C@H](CC(=O)O)NC1=O)[C@@H](C)O (Ac-TF[R8]DKFNHE[S5]EDL-NH2; staple (E) 3-10)	16.1
Ac-HEAEDLFYQS-NH2	5.9
Ac-IEEQAKTFLDKFNHE-NH2	9.6
Ac-TFLDKFNHEAEDL-NH2	8.6

Test system: SARS‐CoV‐2 spike (Wuhan‐Hu‐1 strain) pseudovirus with HIV core, entry into 293 T ACE2 expressing cells
Test: not given
Type: cell-based
Details: not given

Molecule	inhibition of viral entry
Ac-FHTSEYDEQNEIEAAQLFKDFLK-NH2 [Scrambled negative control]	None of these compounds including stapled peptide 8 inhibited viral entry
Ac-IEEQAKTFLDKFNHER8EDLFYQS5-NH2 (sidechain bridge or staple) [Peptide 8]	None of these compounds including stapled peptide 8 inhibited viral entry
IEEQAKR8FLDKFNS5EAEDLFYQS (sidechain bridge or staple) [Stapled negative control]	None of these compounds including stapled peptide 8 inhibited viral entry

Test system: not given
Test: not given
Type: physicochemical
Details: pH 7.4

Molecule	% Helicity
Ac-HEAEDLFYQS-NH2 [Peptide 9]	5.9%
Ac-IEEQAKTFLDKFNHE-NH2 [Peptide 11]	9.6%
Ac-IEEQAKTFLDKFNHER8EDLFYQS5-NH2 (sidechain bridge or staple) [Peptide 8]	72% and 72.2%
Ac-IEEQAKTFLDKFR8HEAEDLS5YQS-NH2 (sidechain bridge or staple) [Peptide 7]	54.5%
Ac-IEEQAKTFLDKR8NHEAEDS5FYQS-NH2 (sidechain bridge or staple) [Peptide 6]	23.5%
Ac-IEEQAKTFR8DKFNHES5EDLFYQS-NH2 (sidechain bridge or staple) [Peptide 5]	31.3%
Ac-IEEQAR8TFLDKFS5HEAEDLFYQS-NH2 (sidechain bridge or staple) [Peptide 4]	57.9%
Ac-IEEQR8KTFLDKS5NHE-NH2 (sidechain bridge or staple) [Peptide 12]	12.2%
Ac-IEEQR8KTFLDKS5NHEAEDLFYQS-NH2 (sidechain bridge or staple) [Peptide 3]	55.6%
Ac-IR8EQAKTFS5LKFNHEAEDLFYQS-NH2 (sidechain bridge or staple) [Peptide 2]	35.4%
Ac-TFLDKFNHEAEDL-NH2 [Peptide 13]	8.6%
Ac-TFR8DKFNHES5EDL-NH2 (sidechain bridge or staple) [Peptide 14]	16.1%
Ac-TS5LDKS5NHEAEDL-NH2 (sidechain bridge or staple) [Peptide 15]	21.0%
